The structures appear in SMILES notation. Like-named read-outs stand apart in the source and are kept apart here. Bounds are passed on as bounds.

The target in experiment [1] is T1, S1PR1 (Homo sapiens, UniProt P21453).
T1 construct: host or cells: CHO-K1 co-expressing Ga15
Nature of the experiment: Agonistic activity test on S1P receptors, FLIPR, CHO-K1/Ga15/EDG1 cells. The class given is cell-based. The settings on record: CHO-K1/Ga15/EDG1 cells, FLIPR agonist mode, read-out: S1PR1 EC50. As for the experimental part: (§1) Instrument: FLIPR™ TETRA (Molecular Device)
Experimental materials: CHO-K1/Ga15/EDG1 cells constructed by GenScript autonomously.
(§2) Sample processing: Before the experiment, the working solution with the corresponding concentration was prepared by diluting with GPCR dilution buffer.
(§3) After 18-20 hours, the cell culture plat was taken out and added with dye working solution, and then the plate was placed in a 37° C./5% CO2 incubator for 1 hour, and finally equilibrated at room temperature for 15 minutes. Positive agonist working solution was added, and RFU values were detected and recorded. […] The positive agonist working fluid was added to the cell culture plate at the 21st second. […] The antagonistic mode detection program, the overall detection time of the instrument was 120 seconds, and positive antagonist working solution was added to the cell culture plate at the 21st second.
(§4) Data processing: Raw data were obtained via ScreenWorks (version 3.1) and saved as *FMD files on the Kingsray computer network system. Data were collected and analyzed using Excel and GraphPad Prism 6 software programs. For each well, the average fluorescence intensity value from 1 to 20 seconds was used as the baseline, and the maximum fluorescence intensity value from 21 to 120 seconds minus the minimum fluorescence intensity value from 21 to 120 seconds was the relative fluorescence intensity value (ARFU), from which the percentage activation or inhibition can be calculated based on the following equation.
(§5) % Activation Rate=(ΔRFUCompound-ΔRFUBackground)/(ΔRFUAgonist control-ΔRFUBackground)×100%
(§6) The data was analyzed using GraphPad Prism 6 with a four-parameter equation to calculate the EC50 and IC50 values. The four-parameter equation was as follows: y=Bottom+(Top-Bottom)/(1+10^((LogEC50/IC50-X)*HillSlope)), wherein X is the Log value of the concentration and Y was the inhibition rate.

Experiment [2] deals with S1PR3 (Homo sapiens, UniProt Q99500). Kind of experiment: Agonistic activity test on S1P receptors, FLIPR. The settings on record: FLIPR agonist mode; read-out: S1PR3 EC50. The class given is cell-based. As for the experimental part: as §1, §2, §3, §4, §5, §6
Sequence of S1PR3 (Q99500 whole entry, species assumed): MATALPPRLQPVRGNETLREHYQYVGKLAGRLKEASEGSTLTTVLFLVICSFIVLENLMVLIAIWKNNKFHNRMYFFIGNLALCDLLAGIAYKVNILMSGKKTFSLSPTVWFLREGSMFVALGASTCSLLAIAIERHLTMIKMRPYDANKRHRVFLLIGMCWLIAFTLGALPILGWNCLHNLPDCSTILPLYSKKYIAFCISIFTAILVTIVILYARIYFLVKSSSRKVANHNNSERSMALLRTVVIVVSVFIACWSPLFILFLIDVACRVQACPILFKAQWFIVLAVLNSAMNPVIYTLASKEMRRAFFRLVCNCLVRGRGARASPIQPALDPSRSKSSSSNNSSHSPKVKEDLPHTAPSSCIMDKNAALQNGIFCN

T1 sequence (P21453 whole entry): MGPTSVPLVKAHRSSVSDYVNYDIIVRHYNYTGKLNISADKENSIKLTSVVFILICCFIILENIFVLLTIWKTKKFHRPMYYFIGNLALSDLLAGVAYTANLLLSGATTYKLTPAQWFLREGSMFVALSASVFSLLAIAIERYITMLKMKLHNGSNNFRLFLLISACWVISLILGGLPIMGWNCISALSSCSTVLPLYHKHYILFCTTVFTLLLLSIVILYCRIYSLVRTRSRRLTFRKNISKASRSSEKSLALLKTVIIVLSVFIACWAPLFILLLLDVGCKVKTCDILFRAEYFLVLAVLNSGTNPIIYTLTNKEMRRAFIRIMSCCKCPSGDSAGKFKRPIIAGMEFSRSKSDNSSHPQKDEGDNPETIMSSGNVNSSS

Take `O=C(O)C1CN(Cc2ccc(-c3noc(-c4ccncc4)n3)c3ccccc23)C1` [Compound A27, 1-((4-(5-(pyridin-4-yl)-1,2,4-oxadiazol-3-yl)naphthalen-1-yl)methyl) azetidine-3-carboxylic acid hydrochloric acid]: the EC50 in experiment [1] (cells printed in μM) and in experiment [2] was over 10 µM in each case.

As to `O=C(O)C1CN(Cc2ccc(-c3noc(-c4ccc(F)cc4)n3)c3ccccc23)C1` [Compound A23, 1-((4-(5-(4-fluorophenyl)-1,2,4-oxadiazol-3-yl)naphthalen-1-yl)methyl) azetidine-3-carboxylic acid hydrochloric acid], the results for the EC50 in experiment [1] and in experiment [2] were 1.96 µM and over 10 µM, respectively.

As to `O=C(O)C1CN(Cc2ccc(-c3noc(-c4ccccc4)n3)c3ccccc23)C1` [Compound A26, 1-((4-(5-phenyl-1,2,4-oxadiazol-3-yl)naphthalen-1-yl)methyl) azetidine-3-carboxylic acid hydrochloric acid], the EC50 (as a rule, the concentration that produces a half-maximal response) was 0.749 µM in experiment [1] and over 10 µM in experiment [2].

Turning to `N#Cc1ccc(-c2nc(-c3ccc(CN4CC(C(=O)O)C4)c4ccccc34)no2)cc1` [Compound A22, 1-((4-(5-(4-cyanophenyl)-1,2,4-oxadiazol-3-yl)naphthalen-1-yl)methyl) azetidine-3-carboxylic acid hydrochloric acid], the EC50 in experiment [1] is 1.13 µM; in experiment [2] it was over 10 µM.

With `O=C(O)C1CN(Cc2ccc(-c3noc(-c4cccc(F)c4)n3)c3ccccc23)C1` [Compound A25, 1-((4-(5-(3-fluorophenyl)-1,2,4-oxadiazol-3-yl)naphthalen-1-yl)methyl) azetidine-3-carboxylic acid hydrochloric acid], the EC50 in experiment [1] is 1.06 µM; in experiment [2], over 10 µM.

For `O=C(O)C1CN(Cc2ccc(-c3noc(-c4ccc5[nH]ccc5c4)n3)c3ccccc23)C1` [Compound A35, 1-((4-(5-(1H-indole-5-yl)-1,2,4-oxadiazol-3-yl)naphthalen-1-yl)methyl) azetidine-3-carboxylic acid hydrochloric acid], the EC50 was 1.96 µM in experiment [1] and over 10 µM in experiment [2].

As for `O=C(O)C1CN(Cc2ccc(-c3noc(-c4ccc5c(c4)OCO5)n3)c3ccccc23)C1` [Compound A31], the EC50 in experiment [1] was 1.3 µM; in experiment [2], over 10 µM.

Consider `O=C(O)C1CN(Cc2ccc(-c3noc(-c4cnc5ccccc5n4)n3)c3ccccc23)C1` [Compound A34, 1-((4-(5-(quinoxaline-2-yl)-1,2,4-oxadiazol-3-yl)naphthalen-1-yl)methyl) azetidine-3-carboxylic acid hydrochloric acid], for which the EC50 in experiment [1] was 0.739 µM; in experiment [2], over 10 µM.

In the case of `CC(C)(C)Oc1ccc(-c2nc(-c3ccc(CN4CC(C(=O)O)C4)c4ccccc34)no2)cc1` [Compound A15, 1-((4-(5-(4-(tert-butoxy)phenyl)-1,2,4-oxadiazol-3-yl)naphthalen-1-yl)methyl) azetidine-3-carboxylic acid hydrochloric acid], the EC50 in experiment [1] was 1.23 µM; in experiment [2], over 10 µM.

Consider `CC(C)Oc1ccc(-c2nc(-c3ccc(CN4CC(C(=O)O)C4)c4ccccc34)no2)cc1Br` [Compound A11, 1-((4-(5-(3-bromo-4-isopropoxyphenyl)-1,2,4-oxadiazol-3-yl)naphthalen-1-yl)methyl) azetidine-3-carboxylic acid hydrochloric acid], for which the EC50 in experiment [1] is 1.37 µM; in experiment [2], over 10 µM.

For `O=C(O)C1CN(Cc2ccc(-c3noc(/C=C/c4ccccc4)n3)c3ccccc23)C1` [Compound A38, (E)-1-((4-(5-styryl-1,2,4-oxadiazol-3-yl)naphthalen-1-yl)methyl) azetidine-3-carboxylic acid hydrochloric acid], the results for the EC50 in experiment [1] and in experiment [2] were 1.42 µM and over 10 µM, respectively.

Consider `CC(C)c1ccc(-c2nc(-c3ccc(CN4CC(C(=O)O)C4)c4ccccc34)no2)cc1` [Compound A20, 1-((4-(5-(4-isopropylphenyl)-1,2,4-oxadiazol-3-yl)naphthalen-1-yl)methyl) azetidine-3-carboxylic acid hydrochloric acid], for which the results for the EC50 in experiment [1] and in experiment [2] were 1.05 µM and over 10 µM, respectively.

For the compound `O=C(O)C1CN(Cc2ccc(-c3noc(-c4ccccn4)n3)c3ccccc23)C1` [Compound A29, 1-((4-(5-(pyridin-2-yl)-1,2,4-oxadiazol-3-yl)naphthalen-1-yl)methyl) azetidine-3-carboxylic acid hydrochloric acid], the EC50 in experiment [1] was 0.993 µM; in experiment [2] it was over 10 µM.

`O=C(O)C1CN(Cc2ccc(-c3noc(-c4ccc(OC(F)(F)F)cc4)n3)c3ccccc23)C1` [Compound A19, 1-((4-(5-(4-(trifluoromethoxy)phenyl)-1,2,4-oxadiazol-3-yl)naphthalen-1-yl)methyl) azetidine-3-carboxylic acid hydrochloric acid]: the EC50 is 1.13 µM in experiment [1] and over 10 µM in experiment [2].

For `CCCc1ccc(-c2nc(-c3ccc(CN4CC(C(=O)O)C4)c4ccccc34)no2)cc1` [Compound A21, 1-((4-(5-(4-propylphenyl)-1,2,4-oxadiazol-3-yl)naphthalen-1-yl)methyl) azetidine-3-carboxylic acid hydrochloric acid], the results for the EC50 in experiment [1] and in experiment [2] were 1.27 µM and over 10 µM, respectively.

For the compound `O=C(O)C1CN(Cc2ccc(-c3noc(-c4ccc(OCc5ccccc5)cc4)n3)c3ccccc23)C1` [Compound A18, 1-((4-(5-(4-(benzyloxy)phenyl)-1,2,4-oxadiazol-3-yl)naphthalen-1-yl)methyl) azetidine-3-carboxylic acid hydrochloric acid], the EC50 in experiment [1] (cells printed in μM) and in experiment [2] was over 10 µM in each case.

`N#Cc1cccc(-c2nc(-c3ccc(CN4CC(C(=O)O)C4)c4ccccc34)no2)c1` [Compound A24, 1-((4-(5-(3-cyanophenyl)-1,2,4-oxadiazol-3-yl)naphthalen-1-yl)methyl) azetidine-3-carboxylic acid hydrochloric acid]: the EC50 in experiment [1] was 0.685 µM; in experiment [2] it was over 10 µM.

For `CC(C)Oc1ccc(-c2nc(-c3ccc(CN4CC(C(=O)O)C4)c4ccccc34)no2)cc1` [Compound A14, 1-((4-(5-(4-isopropoxyphenyl)-1,2,4-oxadiazol-3-yl)naphthalen-1-yl)methyl) azetidine-3-carboxylic acid hydrochloric acid], the results for the EC50 in experiment [1] and in experiment [2] were 1.67 µM and over 10 µM, respectively.

For `CC(C)Oc1ccc(-c2nc(-c3ccc(CN4CC(C(=O)O)C4)c4ccccc34)no2)cc1C(F)(F)F` [Compound A12, 1-((4-(5-(4-isopropoxy-3-(trifluoromethyl)phenyl)-1,2,4-oxadiazol-3-yl)naphthalen-1-yl)methyl) azetidine-3-carboxylic acid hydrochloric acid], the values for the EC50 in experiment [1] and in experiment [2] were 0.358 µM and over 10 µM, respectively.

For the compound `O=C(O)C1CN(Cc2ccc(-c3noc(-c4cc5ccccc5[nH]4)n3)c3ccccc23)C1` [Compound A36, 1-((4-(5-(1H-indole-2-yl)-1,2,4-oxadiazol-3-yl)naphthalen-1-yl)methyl) azetidine-3-carboxylic acid hydrochloric acid], the values for the EC50 in experiment [1] and in experiment [2] were 1.11 µM and over 10 µM, respectively.

As for `CCCOc1ccc(-c2nc(-c3ccc(CN4CC(C(=O)O)C4)c4ccccc34)no2)cc1` [Compound A17, 1-((4-(5-(4-propoxyphenyl)-1,2,4-oxadiazol-3-yl)naphthalen-1-yl)methyl) azetidine-3-carboxylic acid hydrochloric acid], the EC50 in experiment [1] (cells printed in μM) and in experiment [2] was over 10 µM throughout.

With `COc1ccc(-c2nc(-c3ccc(CN4CC(C(=O)O)C4)c4ccccc34)no2)cc1` [Compound A16, 1-((4-(5-(4-methoxyphenyl)-1,2,4-oxadiazol-3-yl)naphthalen-1-yl)methyl) azetidine-3-carboxylic acid hydrochloric acid], the EC50 in experiment [1] was 1.17 µM; in experiment [2], over 10 µM.

On to `COc1cc(-c2nc(-c3ccc(CN4CC(C(=O)O)C4)c4ccccc34)no2)ccc1OC(C)C` [Compound A13, 1-((4-(5-(4-isopropoxy-3-methoxyphenyl)-1,2,4-oxadiazol-3-yl)naphthalen-1-yl)methyl) azetidine-3-carboxylic acid hydrochloric acid], for which the EC50 in experiment [1] is 1.55 µM; in experiment [2], over 10 µM.

`CC(C)Oc1ccc(-c2nc(-c3ccc(CN4CC(C(=O)O)C4)c4ccccc34)no2)cc1Cl` [Compound A10, 1-((4-(5-(3-chloro-4-isopropoxyphenyl)-1,2,4-oxadiazol-3-yl)naphthalen-1-yl)methyl) azetidine-3-carboxylic acid hydrochloric acid]: the EC50 in experiment [1] was 0.699 µM; in experiment [2] it was over 10 µM.

For the origin of these results see patent US20240208954A1, “OXADIAZOLE COMPOUND, PREPARATION METHOD THEREFOR, PHARMACEUTICAL COMPOSITION AND USE THEREOF” (SHANGHAI INSTITUTE OF MATERIA MEDICA, CHINESE ACADEMY OF …, priority 2020, published 2024).
